{"source": "patent US11517598B2", "about": "(priority 2016, dated 2022)", "tested_on": "cytokine, chemokine and IFN stimulated gene expression in 786-0 cells", "format": "cell-based, human"}
{"substance": "Sodium orthovanadate", "values": [{"measurement": "CXCL9 mRNA up-regulation", "result": "more than 100,000 fold"}, {"measurement": "IFNβ mRNA up-regulation", "result": "more than 10 fold"}, {"measurement": "IFNγ expression", "result": "not up-regulated at any time-point post infection under any condition tested"}, {"measurement": "MX2 and IFITM1 mRNA", "result": "robustly downregulated as early as 8 h post-infection"}, {"measurement": "expression of proinflammatory cytokines (CCL8, CCL3, IL6, TNF, IFNβ, CCL5) and type II IFN induced genes (CXCL9, CXCL10, CXCL11)", "result": "increased expression of a number of proinflammatory cytokines"}, {"measurement": "genes typically induced by Type I IFN", "result": "either unaffected or decreased"}]}
